# Measured values: patent US6800612B2, “S-nitrosothiols as agents for the treatment of circulatory dysfunctions” (Lacer, S.A., priority 2000, dated 2004)
# Like-named read-outs stand apart in the source and are kept apart here.
# Tests used:
# arterial ring = assay: Tests for in vitro vasodilatation (arterial rings contracted with 1 μM Norepinephrine); format: cell-based; settings: for EC50: vasodilatation of 50% of arterial ring previously contracted with 1 μM Norepinephrine, 6 to 9 rings, read-out: CE50 (average ± SD), vasodilatation
# Description: Tests for In Vitro Vasodilatation. The method used in the assays is substantially the same as described in the following references: Furchgot, R. F. “Methods in nitric oxide research”. Feelisch & Stamler eds. John Wiley &Sons, Chichester, England, pp 567-581. Trongvanichnam, K, et al. Jpn J. […]., et al. Eur. J. Pharmacol. 1994; 258:47-55. The compounds are tested at 5 different concentrations, at a concentration range from 0,001 y 10 mM, using from 6 to 9 arterial rings for each compound. The obtained results are compared to those from the S-nitrosoglutathione (GSNO), which is used as reference product.
# platelets = assay: Tests in vitro of the inhibition of the aggregation of the platelets (collagen 1 μg/mL); format: cell-based, human; settings: for IC50: aggregation obtained with sub-maximal collagen concentration (1 μg/mL), read-out: IC50 (average ± SD), inhibition of the aggregation of the platelets; for inhibiting activity on platelets aggregation compared to the reference compound (GSNO): in words
# Excerpt: Tests In Vitro of the Inhibition of the Aggregation of the Platelets. The method used in the assays is substantially the same as described in following references: Loscalzo J, et al. En: Methods in nitric oxide research (Feelisch M, Stamler JS, eds.) John Wiley & Sons, Chichester, England, pp 583-591. Radomski MW, et al. Br J Pharmacol 1987;92:181-187. […], et al. Br J Pharmacol 1994;112:1071-1076. […] The obtained results are compared to those from the S-nitrosoglutathione (GSNO), which is used as reference product.
# human washed platelets = assay: Tests in vitro of the increase of the intra-platelet levels of GMPc; format: cell-based; settings: for GMPc intra-platelet level: human washed platelets
# Excerpt: Tests In Vitro of the Increase of the Intra-platelet Levels of GMPc. […] The method used in the test is substantially the same as described in the references cited in example 8. […] The obtained results are compared to those from the GSNO (reference product) and with the basal values.
# [1] = test system: human washed platelet preparations; assay: Test in vitro of the blockage of platelet aggregation inhibition by ODQ; format: cell-based; settings: for inhibition at 0.1 µM / inhibition at 0.3 µM / inhibition at 1 µM: Homo sapiens, Platelet; for inhibition at 1 µM: 1 μM compound; for blocking of the inhibiting effect by ODQ: IC50 dose of the compounds
# Description: Test In Vitro of the Blockage of Platelet Aggregation Inhibition. The method used in the test is substantially the same as described in the references cited in example 8, completed with the reference: Moro MA, et al. Pr Nat Acad Sc USA. 1996 ;93:1480-5. The ODQ is tested in vitro to block the inhibition of platelet aggregation reached by the obtained products in human washed platelet preparations. […] The obtained results are compared to those from the GSNO (reference product) and with the values in absence of ODQ.
compound,measurement,setting,value
"N[C@@H](CCC(=O)N[C@@H](CSN=O)C(=O)NCC(=O)O)C(=O)O [GSNO, S-nitrosoglutathione, reference compound]",EC50,arterial ring,1560 ± 550 nM
same,IC50,"platelets; Homo sapiens, Platelet",480 ± 190 nM
same,GMPc intra-platelet level,human washed platelets; 0.1 μM compound,1 ± 0.5 pmol/10^9 platelets
same,GMPc intra-platelet level,human washed platelets; 0.3 μM compound,6.6 ± 0.6 pmol/10^9 platelets
same,GMPc intra-platelet level,human washed platelets; 1 μM compound,24 ± 0.5 pmol/10^9 platelets
same,GMPc intra-platelet level,human washed platelets; 3 μM compound,27.6 ± 6.0 pmol/10^9 platelets
same,inhibition at 0.1 µM,"[1]; 0.1 μM compound, ODQ 1 μM, read-out: % inhibition with ODQ",0%
same,inhibition at 0.1 µM,"[1]; 0.1 μM compound, inhibition of the maximum aggregation, read-out: % inhibition without ODQ",34.2 ± 25%
same,inhibition at 0.3 µM,"[1]; 0.3 μM compound, ODQ 1 μM, read-out: % inhibition with ODQ",3.3 ± 3%
same,inhibition at 0.3 µM,"[1]; 0.3 μM compound, inhibition of the maximum aggregation, read-out: % inhibition without ODQ",79.3 ± 17%
same,inhibition at 1 µM,"[1]; ODQ 1 μM, read-out: % inhibition with ODQ",32.6 ± 0.9%
same,inhibition at 1 µM,"[1]; inhibition of the maximum aggregation, read-out: % inhibition without ODQ",92.65 ± 0.9%
same,blocking of the inhibiting effect by ODQ,"[1]; ODQ 1 μM, in words",capable of blocking the inhibiting effect
"CC(=O)NC(C(=O)O)C1(SN=O)CCOCC1 (stereo not drawn) [Product obtained in example 1, N-acetyl-2-amino-2-[4-(4-S-Nitro-somercaptotetrahydropyran) ] Acetic Acid]",EC50,arterial ring,375 ± 50 nM
same,IC50,platelets,70 ± 20 nM
same,inhibiting activity on platelets aggregation compared to the reference compound (GSNO),platelets,highly superior to that of the reference product
"CC(=O)NC(C(=O)O)C1(SN=O)CCN(C)CC1 (stereo not drawn) [Product obtained in example 2, N-acetyl-2-amino-2-[4-(4-S-nitro-somercapto-1-methylpiperidin)] Acetic Acid]",vasodilating activity compared to the reference compound (GSNO),arterial ring; in words,highly superior to that of the reference product
same,EC50,arterial ring,24 ± 3 nM
same,IC50,platelets,190 ± 20 nM
"CC(=O)NC(C(=O)O)C(Cc1ccccc1)(Cc1ccccc1)SN=O (stereo not drawn) [Product obtained in example 3, N-acetyl-2-amino-3-benzyl-3-S-ni-trosomercapto-4-phenyl-butanoic Acid]",EC50,arterial ring,630 ± 210 nM
same,IC50,platelets,240 ± 27 nM
"N[C@@H](CCC(=O)NC(C(=O)NCC(=O)O)C(Cc1ccccc1)(Cc1ccccc1)SN=O)C(=O)O (stereo partly drawn) [Product obtained in example 6, N[N-γ-L-glutamyl-2-amino-3-benzyl-3-(S-nitrosomercapto)-4-phenylbutanoyl] glycine]",IC50,platelets,350 ± 110 nM
N[N-γ-L-glutamyl-2-amino-2-(4-(4-S-nitrosomercapto-1-methyl-piperidin))acetyl ] glycine [Product obtained in example 5],EC50,arterial ring,1890 ± 820 nM
same,IC50,platelets,47 ± 11 nM
same,inhibiting activity on platelets aggregation compared to the reference compound (GSNO),platelets,highly superior to that of the reference product
same,GMPc intra-platelet level,human washed platelets; 0.03 μM compound,1.60 ± 0.5 pmol/10^9 platelets
same,GMPc intra-platelet level,human washed platelets; 0.1 μM compound,1.50 ± 0.4 pmol/10^9 platelets
same,GMPc intra-platelet level,human washed platelets; 0.3 μM compound,6.50 ± 0.5 pmol/10^9 platelets
same,GMPc intra-platelet level,human washed platelets; 1 μM compound,21.1 ± 0.5 pmol/10^9 platelets
same,increase of intra-platelet levels of GMPc compared to GSNO,human washed platelets; in words,in a similar manner to that of the GSNO reference
same,"levels of GMPc at concentrations close to the IC50, compared to GSNO","human washed platelets; values close to the IC50, in words",lower as that of the GSNO
same,% inhibition with ODQ,"[1]; 0.003 μM compound, ODQ 1 μM",0%
same,% inhibition without ODQ,"[1]; 0.003 μM compound, inhibition of the maximum aggregation",0%
same,% inhibition with ODQ,"[1]; 0.01 μM compound, ODQ 1 μM",0%
same,% inhibition without ODQ,"[1]; 0.01 μM compound, inhibition of the maximum aggregation",17%
same,% inhibition with ODQ,"[1]; 0.03 μM compound, ODQ 1 μM",0%
same,% inhibition without ODQ,"[1]; 0.03 μM compound, inhibition of the maximum aggregation",83 ± 1.4%
same,% inhibition with ODQ,"[1]; 0.1 μM compound, ODQ 1 μM",0%
same,% inhibition without ODQ,"[1]; 0.1 μM compound, inhibition of the maximum aggregation",96%
same,% inhibition with ODQ,"[1]; 0.3 μM compound, ODQ 1 μM",0%
same,% inhibition without ODQ,"[1]; 0.3 μM compound, inhibition of the maximum aggregation",96%
same,blocking of the inhibiting effect by ODQ,"[1]; ODQ 1 μM, in words",capable of blocking the inhibiting effect
same,blocking of the inhibition of aggregation by ODQ compared to the reference product,"[1]; ODQ 1 μM, at higher doses to that of the IC50, in words",better blocked
N[N-γ-L-glutamyl-2-amino-2-(4-(4—S—nitrosomercapto)tetrahydropyran)) acetyl]glycine [Product obtained in example 4],EC50,arterial ring,1730 ± 270 nM
same,IC50,platelets,200 ± 120 nM
